Tests used:
[1] = compared with the crystalline form; cited from earlier work
[2] = amorphous form, purity at least 95%; cited from earlier work
[3] = Particle size by scanning electron microscopy; format: physicochemical; conditions: crystalline feed material before milling
Procedure: 30 g of crystalline cefuroxime axetil S isomer with a particle size of 10-300 μm and having a bulk density of 0.391 g/cc, together with 3 g of sodium lauryl sulphate (SLS) were placed in the bowl of a Micros ‘0’ Super Fine Mill. Cold water was circulated through the outer jacket. The mill was operated with main shaft rotation set at 1000 rpm for 120 mins. The inner temperature was maintained in the range from 19-24° C. […] Samples of the material were examined by scanning electron microscopy and by X-ray diffraction crystallography.
Crystalline cefuroxime axetil S isomer with a particle size of 10-300 μm and having a bulk density of 0.391 g/cc, a mixture of crystalline cefuroxime axetil S isomer with crystalline cefuroxime axetil R isomer with a particle size of 5-50 μm, and having a bulk density of 0.221 g/cc. and crystalline cefuroxime axetil R,S racemic mixture were tested for conversion from the crystalline form to an amorphous form in different trials. The feed material consisted of cefuroxime axetil together with sodium lauryl sulphate or cefuroxime axetil together with sodium lauryl sulphate and colloidal silica (Aerosil 200). Samples of the material were withdrawn at various times for X-ray diffraction crystallography using a XRG 3000 diffractometer, and for scanning electron photomicrography. […] The percent crystallinity for the samples from Examples 6-9 was estimated to be less than 5% in all cases confirming the conversion of cefuroxime axetil to a predominantly (at least 95%) amorphous form.

[4] = Bulk density of crystalline feed material; format: physicochemical; conditions: crystalline feed material before milling
[5] = listed as Crystalline cefuroxime axetil S isomer

SMILES | bioavailability [1] | chemical stability [2] | particle size [3] | bulk density [4] [g/cc] | particle size [3, 5] | bulk density [4, 5] [g/cc]
CO/N=C(\C(=O)N[C@@H]1C(=O)N2C(C(=O)OC(C)OC(C)=O)=C(COC(N)=O)CS[C@H]12)c1ccco1 (some centres unmarked) [cefuroxime axetil in amorphous form, cefuroxime axetil] | higher bioavailability than the crystalline form | adequate chemical stability |  |  |  | 
CO/N=C(\C(=O)N[C@@H]1C(=O)N2C(C(=O)OC(C)OC(C)=O)=C(COC(N)=O)CS[C@H]12)c1ccco1 (stereo partly drawn) [crystalline cefuroxime axetil R isomer, cefuroxime axetil] |  |  | 5-50 μm | 0.221 |  | 
CO/N=C(\C(=O)N[C@@H]1C(=O)N2C(C(=O)OC(C)OC(C)=O)=C(COC(N)=O)CS[C@H]12)c1ccco1 (stereo partly drawn) [crystalline cefuroxime axetil S isomer, cefuroxime axetil] |  |  | 10-300 μm | 0.391 | 10-300 μm | 0.391

From patent publication US6534494B1, “Process for the preparation of cefuroxime axetil in an amorphous form” (Ranbaxy Laboratories Limited, priority 1998, dated 2003)
